# Measured values as given in patent publication US20080234244A1, “CU[…] AND USES THEREOF” (priority 2007, published 2008).
# Key:
# [1] = test system: Human leukemia cell lines CCRF-CEM, K562, MOLT-4, RPMI-8226 and SR; test: Cell proliferation assay using SRB, 5 human leukemia cell lines; format: cell-based; settings: 48 hours treatment, range over the 5 cell lines, read-out: GI50 (growth inhibition), all leukemia cell lines
# Experimental: (§1) Human leukemia cell lines CCRF-CEM, K562, MOLT-4, RPMI-8226 and SR, purchased from the National Cancer Institute (NCI), were cultured in RPMI 1640 medium supplemented with 5% (v/v) fetal […] and 100 units/ml penicillin and 100 units/ml streptomycin in a humidified 5% CO2 atmosphere at 37° C.
# (§2) All 5 human leukemia cells were screened by the cell proliferation assay using SRB to quantitative cell protein mass following cucurbitacin B treatment. The experiments were repeated in triplicate. Appropriate number of cells (depends on the doubling time of cells) were seeded into a 96-well tissue culture plate and growth in the indicated medium in presence of different dosages of cucurbitacin B for 2 days. Afterwards 25 μl 80% TCA reagent was added into each well to fix the cells and the plates were incubated at 4° C. at least for 1 hour. Then the plates were washed with tap water and air dried. […] The plates were air dried and dissolved by 100 μl 10 mM Trizma-base solution and the absorbance was measured at 515 nm using FLUOstar OPTIMA equipment.
# (§3) Appropriate number of cell density were seeded into a 96 well culture plate and treated with different doses of cucurbitacin B for 2 days. The growth inhibition effects of cucurbitacin B on the cells were detected using SRB.
# [2] = test system: Elk-1 activation in K562 cells; test: Phosphorylation of Elk-1; format: cell-based, human; settings: 50 μM, 5 minutes treatment
# Experimental: (§4) In order to further investigate if cucurbitacin B block the Stat3 activation is truly through Erk pathway in K562 cells, the ability of cucurbitacin B to inhibit the Ras/Raf/Mek/Erk pathway was determined by measuring Ras-GTP, phosphorylation of c-Raf, Mek1/2, Erk1/2 and Elk-1 in K562 cells. The cells were incubated with 50 μM cucurbitacin B for the indicated time intervals (2 minutes, 5 minutes, 10 minutes, 30 minutes, 1 hour and 4 hours). 15 μg cell lysates were subjected to western blot analysis for phosphorylation and total c-Raf, Mek1/2, Erk1/2.
# [3] = test system: c-Raf activation in K562 cells; test: Western blot of phosphorylated and total c-Raf; format: cell-based, human; settings: 50 μM, 5 minutes treatment
# Experimental: (§5) K562 leukemia cells were serum starved for 18 hours prior to cucurbitacin B treatment. The cells were incubated at a 75-mm culture flask filled with 10 ml growth medium (RPMI with 10% FBS and 1% PS) at the cell density of 1×10^5 cells/ml in the presence or absence of cucurbitacin B for various time intervals. The drug treatment were terminated by centrifugation at 1500 rpm for 5 minutes and the cells were rinsed twice with phosphate-buffered saline and lysed at 4° C. in a lysis buffer containing 50 mM Tris-HCl, pH7.5, […], 5 mM EDTA, 40 mM NaP2O7, 1% Triton X-100, 1 mM dithiothreitol, […], 100 μM phenylmethylsulfonyl fluoride, 2 μg/ml leupeptin, 4 μg/ml aprotinin and 0.7 μg/ml pepstatin. The insoluble protein lysate were removed by centrifugation for 10 minutes at 13000 rpm. Fifteen micrograms of protein lysate was resolved using SDS-polyacryamide gel electrophoresis (PAGE) (usually 8%-12% polyacrylamide gel) and then subjected to western blot analysis. Western blots were performed with antibodies specific for phosphorylated and total Stat3, c-Raf, Mek, and Erk. […]
# (§6) In order to further investigate if cucurbitacin B block the Stat3 activation is truly through Erk pathway in K562 cells, the ability of cucurbitacin B to inhibit the Ras/Raf/Mek/Erk pathway was determined by measuring Ras-GTP, phosphorylation of c-Raf, Mek1/2, Erk1/2 and Elk-1 in K562 cells. […]
# [4] = test system: Raf/Mek/Erk pathway in K562 cells; test: Western blot, Raf/Mek/Erk pathway as a whole; format: cell-based, human; settings: 50 μM, after 4 hours of treatment
# Experimental: as §5, §6
# K562 cells [5] = test: Cell morphology by microscopy (Leica DMIL, 400x); format: cell-based, human; settings: 48 hours
# Experimental: (§7) 10^5/ml K562 cells were treated with cucurbitacin B in the presence of complete medium containing 10% FBS for 48 hours. The changes in cell morphology were visualized using Leica DMIL (Leica Microsystem). Cells were harvested and rinsed twice with ice-cold PBS (pH7.4) and a total 2.5×10^5 K562 cells were stained with 10 μl Annexin V and 10 μl propidium iodide in 100 μl 1× binding buffer for 15 minutes in dark and then subjected to apoptosis analysis with FACSCalibar Flow cytometer system (FACS Calibur BD Flow Cytometer).
# After 48 hours of cucurbitacin B treatment, the cells were viewed using a Leica DMIL microscope at 400× magnification. […] However, the treated cells lost the rounded shape and shrank in size at the highest dose of cucurbitacin B used (80 nM).
# [6] = test system: Stat3 activation in K562 cells; test: Western blot of phosphorylated and total Stat3; format: cell-based, human; settings: 50 μM
# Experimental: K562 leukemia cells were serum starved for 18 hours prior to cucurbitacin B treatment. The cells were incubated at a 75-mm culture flask filled with 10 ml growth medium (RPMI with 10% FBS and 1% PS) at the cell density of 1×10^5 cells/ml in the presence or absence of cucurbitacin B for various time intervals. The drug treatment were terminated by centrifugation at 1500 rpm for 5 minutes and the cells were rinsed twice with phosphate-buffered saline and lysed at 4° C. in a lysis buffer containing 50 mM Tris-HCl, pH7.5, […], 5 mM EDTA, 40 mM NaP2O7, 1% Triton X-100, 1 mM dithiothreitol, […], 100 μM phenylmethylsulfonyl fluoride, 2 μg/ml leupeptin, 4 μg/ml aprotinin and 0.7 μg/ml pepstatin. The insoluble protein lysate were removed by centrifugation for 10 minutes at 13000 rpm. Fifteen micrograms of protein lysate was resolved using SDS-polyacryamide gel electrophoresis (PAGE) (usually 8%-12% polyacrylamide gel) and then subjected to western blot analysis. Western blots were performed with antibodies specific for phosphorylated and total Stat3, c-Raf, Mek, and Erk. The blots were developed with the Enhanced Chemiluminescence Plus (ECL Plus) detection system (Amersham).
# 15 μg cell lysate of each sample was separated in 8% SDS-PAGE followed by immuno-blotting with anti-Stat3 antibodies to detect the phosphorylated form of Stat3 as well as its total expression level.
# Cells were serum starved for 18 hours followed by treated with 50 μM cucurbitacin B for 10 minutes, 30 minutes, 1 hour and 4 hours, respectively. 15 μg cell lysate of each sample was separated in 8% SDS-PAGE followed by immuno-blotting with anti-Stat3 antibodies to detect the phosphorylated form of Stat3 as well as its total expression level.
# K562 cells [7] = test: Flow cytometry for apoptosis analysis (Annexin V / PI); format: cell-based, human; settings: 80 nM, 48 hours, K562, Anx.V/PI
# Experimental: as §7
# Appropriate number of cell density were seeded into T-25 culture flask and treated with different doses of cucurbitacin B for 2 days. The apoptotic effects of cucurbitacin B on the cells were detected using Flow Cytometry analysis after stained with Anx.V and PI for 15 minutes. […] Cucuribitacin B induced apoptosis in a dose dependent manner, among them, 80 nM induced the highest apoptotic effect in K562 cells, with over 50% cells in apoptotic population and 10% cells in the necrotic population (late apoptotic and necrotic phase). The effect of cucurbitacin B on apoptosis and cell cycle profile in K562 cells were analyzed using flow cytometry, as depicted in FIG. 3.
# K562 = test: Cell proliferation assay using SRB, K562; format: cell-based; settings: Homo sapiens, K562, 48 hours treatment, read-out: GI50 (growth inhibition)
# Experimental: as §1, §2, §3
# [8] = test system: Erk1/2 activation in K562 cells; test: Western blot of phosphorylated and total Erk1/2; format: cell-based, human; settings: 50 μM, 5 minutes treatment
# Experimental: as §5, §6
# K562 cells [9] = test: Flow cytometry for cell cycle analysis (PI); format: cell-based, human; settings: 80 nM, 48 hours, K562, serum starved 24 hours
# Experimental: K562 cells were serum starved for 24 hours prior to cucurbitacin B treatment. After 48 hours of treatment, the cells were collected and rinsed twice with phosphate-buffer saline and fixed with 80% ice-cold ethanol for 1 hour at 4° C. overnight.
# Then, the cells were stained with propidium iodine at 1 mg/ml for 15 minutes at room temperature. The stained cells were analyzed by flow cytometry (FACS Calibur BD Flow Cytometer)
# Appropriate numbers of cell density were serum starved for 24 hours prior to treatment with different doses of cucurbitacin B for 2 days. The cell cycle analysis profile of K562 cells after cucurbitacin B treatment were detected using Flow Cytometry analysis after fixed with 80% ice-cold ethanol at 4° C. and then stained with PI for 15 minutes.
# [10] = test system: Mek1/2 activation in K562 cells; test: Western blot of phosphorylated and total Mek1/2; format: cell-based, human; settings: 50 μM, 5 minutes treatment
# Experimental: as §5, §6
# [11] = test system: Ras-GTP activation in K562 cells; test: GTPase pull-down assay (GST-Raf1-RBD), Ras-GTP content; format: cell-based, human; settings: 50 μM, 2 minutes to 4 hours
# Experimental: Lysate with 500 μg protein were used to determined the Ras-GTP content by the Glutathione S-transferase (GST)-RBD (Ras-binding domain of Raf) pull down assay. The treated and control cells were lysed in lysis buffer (25 mMTris-HCl, pH7.5, 150 mM NaCl, 5 mMMgCl2, 1% NP-40, 1 mM DTT and 5% glycerol) for 5 minutes at 4° C. Soluble cell lysates were obtained by centrifuged at 17000 g for 5 minutes. 500 μg cell lysate were collected and incubated with 80 μg GST-Raf1-RBD in 50 mM Tris-HCl, pH7.2, 150 mMNaCl, 0.5% Triton X-100, 5 mMMgCl2, 1 mMDTT and 10% glycerol for 1 hour at 4° C. The beads were washed with lysis buffer for 3 times and then resuspended and boiled in 2× sample buffer at 100° C. for 5 minutes. 25 μl supernatants were collected by centrifuged at 7200 g for 2 minutes and then resolved in 15% SDS-PAGE followed by western blot analysis using anti-Ras antibody.
# as §4, with “15 μg cell lysates were subjected to western blot analysis for phosphorylation and total c-Raf, Mek1/2, Erk1/2.” left out
compound,measurement,setting,value
CC(=O)OC(C)(C)/C=C/C(=O)[C@](C)(O)C1[C@H](O)C[C@@]2(C)C3CC=C4C(C[C@H](O)C(=O)C4(C)C)[C@]3(C)C(=O)C[C@]12C (some centres unmarked) [cucurbitacin B],GI50,[1],15.6 to 35.3 nM
same,inhibition of activation of Elk-1,[2],significantly inhibited
same,inhibition of activation of c-Raf,[3],significantly inhibited
same,inhibition of the Raf/Mek/Erk pathway,[4],Complete inhibition
same,change in cell morphology,K562 cells [5]; 20 nM and 40 nM,increase in cell size
same,change in cell morphology,K562 cells [5]; 80 nM,shrinkage of cell size
same,time of peak inhibition of Stat3 activation,[6],4 h
same,"inhibition of Stat3 activation, time course",[6]; 10 minutes to 30 minutes,No significant change
same,"inhibition of Stat3 activation, time course",[6]; 1 hour treatment,inhibited Stat3 activation
same,inhibition of Stat3 activation (phospho-Stat3),"[6]; 4 hours, only the highest of 1, 5, 50 μM",significant inhibited
same,cells in apoptotic population,K562 cells [7],over 50%
same,cells in the necrotic population (late apoptotic and necrotic phase),K562 cells [7],10%
same,GI50,K562,15.6 nM
same,inhibition of activation of Erk1/2,[8],significantly inhibited
same,percentage of cells in the G2/M phase,K562 cells [9],70%
same,inhibition of activation of Mek1/2,[10],significantly inhibited
same,change of Ras-GTP activation,[11],no significant change
